From ChEMBL document CHEMBL1147466 (Bioorg Med Chem Lett, 2004) come the findings set out here.

Assay [1] addresses T1, Lysophosphatidic acid receptor 2 (Homo sapiens, UniProt Q9HBW0). Put plainly: Agonistic activity against lysophosphatidic acid receptor 2 using [35S]GTP-gamma-S as radioligand tested in vitro. The class given is functional.
The target of assay [2] is T1, Lysophosphatidic acid receptor 2. Put plainly: Maximal efficacy to that of maximal efficacy of LPA against lysophosphatidic acid receptor 2 was determined in vitro.
Assay [3] concerns the target T2, Lysophosphatidic acid receptor 3 (Homo sapiens, UniProt Q9UBY5).
T2 sequence (Q9UBY5 whole entry): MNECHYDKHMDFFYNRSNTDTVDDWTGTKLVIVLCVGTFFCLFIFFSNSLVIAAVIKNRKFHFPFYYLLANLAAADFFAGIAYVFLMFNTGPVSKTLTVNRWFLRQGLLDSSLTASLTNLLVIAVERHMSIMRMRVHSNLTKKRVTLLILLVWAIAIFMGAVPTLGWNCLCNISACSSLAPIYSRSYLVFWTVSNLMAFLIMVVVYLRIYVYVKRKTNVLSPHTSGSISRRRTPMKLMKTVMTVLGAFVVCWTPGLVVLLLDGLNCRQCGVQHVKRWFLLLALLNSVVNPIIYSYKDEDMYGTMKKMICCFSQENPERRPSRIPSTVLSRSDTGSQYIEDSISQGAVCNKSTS
Description: Agonistic activity against lysophosphatidic acid receptor 3 using [35S]GTP-gamma-S as radioligand tested in vitro. The class given is functional. Background: GTPγS resists hydrolysis and so accumulates on activated G proteins.

Assay [4] concerns the target T3, Lysophosphatidic acid receptor 1 (Homo sapiens, UniProt Q92633). Put plainly: Agonistic activity against lysophosphatidic acid receptor 1 using [35S]GTP-gamma-S as radioligand tested in vitro. The class given is functional.
In assay [5] the target is T3, Lysophosphatidic acid receptor 1. Put plainly: Maximal efficacy to that of maximal efficacy of LPA against lysophosphatidic acid receptor 1 was determined in vitro.
Assay [6] has the same target. Description: Agonistic activity against lysophosphatidic acid receptor 1 receptor using [35S]GTP-gamma-S as radioligand tested in vitro. The class given is functional.
Assay [7] concerns the target T4, Lysophosphatidic acid receptor 3 (Homo sapiens) (UniProt Q9UBY5).
T4 sequence (whole entry): T2 sequence (Q9UBY5 whole entry)
Description: Maximal efficacy to that of maximal efficacy of LPA against lysophosphatidic acid receptor 3 was determined in vitro.

The EC50 is the concentration needed to bring the measured effect to its halfway point. Low readings indicate an effect from little substance, high ones a need for much substance. Broadly, the Emax is the greatest response seen or fitted, relative to the assay's reference.

T3 sequence (Q92633 whole entry): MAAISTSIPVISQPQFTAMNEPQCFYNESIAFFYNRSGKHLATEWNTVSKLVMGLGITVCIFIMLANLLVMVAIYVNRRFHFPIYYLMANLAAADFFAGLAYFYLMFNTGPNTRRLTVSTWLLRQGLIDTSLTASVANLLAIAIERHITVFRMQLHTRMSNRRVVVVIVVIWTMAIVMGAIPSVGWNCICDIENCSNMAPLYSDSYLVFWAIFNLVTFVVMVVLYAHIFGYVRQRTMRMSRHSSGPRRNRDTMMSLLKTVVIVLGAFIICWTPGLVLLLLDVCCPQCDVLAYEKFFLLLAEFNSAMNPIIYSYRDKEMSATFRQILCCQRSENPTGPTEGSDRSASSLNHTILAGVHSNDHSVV
T1 sequence (Q9HBW0 whole entry): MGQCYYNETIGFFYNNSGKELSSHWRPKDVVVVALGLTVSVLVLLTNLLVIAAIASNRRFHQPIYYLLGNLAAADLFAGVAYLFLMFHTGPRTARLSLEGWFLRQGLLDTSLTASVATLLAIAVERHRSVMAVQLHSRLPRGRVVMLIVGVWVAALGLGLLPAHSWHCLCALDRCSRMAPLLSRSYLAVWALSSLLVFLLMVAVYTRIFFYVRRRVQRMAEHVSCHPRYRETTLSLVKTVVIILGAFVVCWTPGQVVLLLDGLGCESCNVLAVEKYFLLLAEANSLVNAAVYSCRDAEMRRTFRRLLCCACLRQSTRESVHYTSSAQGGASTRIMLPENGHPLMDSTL

For `CCCCCCCC/C=C\CCCCCCCC(=O)NCCC(=O)P(=O)(O)O`, the EC50 in assay [1] was 1090 nM; in assay [3] it was over 5000 nM; in assay [4], 221 nM. The results for the Emax in assay [2] and in assay [5] were 90% and 80%, respectively.

On to `CCCCCCCC/C=C\CCCCCCCC(=O)NCCC(O)P(=O)(O)O` (stereo unspecified), for which the EC50 in assay [1] is 2070 nM; in assay [6], 1230 nM; in assay [3] it was over 5000 nM. Also, the Emax in assay [2] was 90%; in assay [5], 80%.

Regarding `CCCCCCCC/C=C\CCCCCCCC(=O)NCCC(F)P(=O)(O)O` (stereo unspecified), the EC50 in assay [1] is 1960 nM; in assay [3], over 5000 nM; in assay [4] it was over 5000 nM. Further, the Emax in assay [2] was determined as 100%.

Consider `CCCCCCCC/C=C\CCCCCCCC(=O)OC[C@@H](O)COP(=O)(O)O` [LYSOPHOSPHATIDIC ACID], for which the Emax in assay [2], in assay [5] and in assay [7] was 100% in each case. For the same molecule, the EC50 in assay [4] amounted to 17 nM.

`CCCCCCCC/C=C\CCCCCCCC(=O)NCCC(O)(P(=O)(O)O)P(=O)(O)O`: the EC50 in assay [1], in assay [3] and in assay [4] was over 5000 nM each time.

For `CCCCCCCC/C=C\CCCCCCCC(=O)NCCOP(=O)(O)O`, the Emax in assay [2] is 110%; in assay [5], 100%.

`CCCCCCCC/C=C\CCCCCCCC(=O)NCCC(=O)P(O)(O)=S`: the EC50 is 108 nM in assay [1], over 5000 nM in assay [3] and 40 nM in assay [4]. The values for the Emax in assay [2] and in assay [5] were 46% and 80%, respectively.

For the molecule `CCCCCCCC/C=C\CCCCCCCC(=O)NCCC(=S)P(=O)(O)O`, the EC50 is over 5000 nM in assay [1], over 5000 nM in assay [3] and 318 nM in assay [4]. Besides, the Emax in assay [5] came out at 50%.

For `CCCCCCCC/C=C\CCCCCCCC(=O)NCCCP(=O)(O)O`, the values for the EC50 in assay [1], in assay [3] and in assay [4] were over 5000 nM, over 5000 nM and 1950 nM, respectively. The molecule also displayed an Emax in assay [5] of 50%.
